Experimental data reported in ChEMBL document CHEMBL1128908, “Synthesis and biological evaluation of 2,3-diarylthiophenes as selective cox-2 inhibitors. part II: Replacing the heterocycle” (Bioorg Med Chem Lett, 1996).
One block for each compound: values may come before it.

Assays:
[1] = target: Prostaglandin G/H synthase 1 (Homo sapiens, UniProt P23219); experiment: biochemical; type: cell-based, Sf9, Microsomes
Description: Inhibitory activity against human recombinant Prostaglandin G/H synthase 1 expressed in microsomes taken from baculovirus infected Sf9 cells

[2] = target: T1, Prostaglandin G/H synthase 2 (Homo sapiens, UniProt P35354); experiment: biochemical; type: cell-based, Sf9, Microsomes
T1 sequence (P35354 whole entry): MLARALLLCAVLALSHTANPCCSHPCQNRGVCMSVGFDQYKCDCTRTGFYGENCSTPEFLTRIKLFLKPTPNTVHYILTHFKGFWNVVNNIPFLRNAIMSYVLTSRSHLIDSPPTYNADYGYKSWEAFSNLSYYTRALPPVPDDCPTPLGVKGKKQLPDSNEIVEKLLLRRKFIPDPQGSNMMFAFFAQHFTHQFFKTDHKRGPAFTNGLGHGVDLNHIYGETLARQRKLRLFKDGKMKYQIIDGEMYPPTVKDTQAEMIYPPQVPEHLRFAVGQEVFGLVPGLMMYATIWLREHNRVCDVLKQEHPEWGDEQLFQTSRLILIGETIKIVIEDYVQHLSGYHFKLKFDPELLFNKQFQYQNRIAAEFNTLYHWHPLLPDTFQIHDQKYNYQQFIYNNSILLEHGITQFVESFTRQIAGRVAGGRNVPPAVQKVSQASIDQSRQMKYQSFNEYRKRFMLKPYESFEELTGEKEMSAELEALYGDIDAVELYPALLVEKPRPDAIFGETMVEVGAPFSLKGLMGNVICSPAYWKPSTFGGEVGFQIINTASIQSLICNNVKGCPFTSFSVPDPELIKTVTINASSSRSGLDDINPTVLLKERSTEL
Description: Inhibitory activity against human recombinant Prostaglandin G/H synthase 2 expressed in microsomes taken from baculovirus infected Sf9 cells

Rattus norvegicus [3] = experiment: Compound was evaluated in vivo for potency against rat paw edema model; type: functional
Rattus norvegicus [4] = experiment: Compound was evaluated in vivo for effect on gastrointestinal integrity(GI) in rats using [51Cr]- assay: causes lesions; type: functional, organism-based
[5] = Plasma concentration at 2 hr in rats was evaluated.; type: ADME, organism-based; settings: rat
Rattus norvegicus [6] = experiment: Compound was evaluated in vivo for effect on gastrointestinal integrity (GI) in rats using [51Cr]- assay: causes lesions; type: functional, organism-based
Rattus norvegicus [7] = experiment: Compound was evaluated in vivo for effect on gastrointestinal integrity(GI) in rats using [51Cr]- assay: no lesions observed; type: functional, organism-based

Sequence of Prostaglandin G/H synthase 1 (P23219 whole entry): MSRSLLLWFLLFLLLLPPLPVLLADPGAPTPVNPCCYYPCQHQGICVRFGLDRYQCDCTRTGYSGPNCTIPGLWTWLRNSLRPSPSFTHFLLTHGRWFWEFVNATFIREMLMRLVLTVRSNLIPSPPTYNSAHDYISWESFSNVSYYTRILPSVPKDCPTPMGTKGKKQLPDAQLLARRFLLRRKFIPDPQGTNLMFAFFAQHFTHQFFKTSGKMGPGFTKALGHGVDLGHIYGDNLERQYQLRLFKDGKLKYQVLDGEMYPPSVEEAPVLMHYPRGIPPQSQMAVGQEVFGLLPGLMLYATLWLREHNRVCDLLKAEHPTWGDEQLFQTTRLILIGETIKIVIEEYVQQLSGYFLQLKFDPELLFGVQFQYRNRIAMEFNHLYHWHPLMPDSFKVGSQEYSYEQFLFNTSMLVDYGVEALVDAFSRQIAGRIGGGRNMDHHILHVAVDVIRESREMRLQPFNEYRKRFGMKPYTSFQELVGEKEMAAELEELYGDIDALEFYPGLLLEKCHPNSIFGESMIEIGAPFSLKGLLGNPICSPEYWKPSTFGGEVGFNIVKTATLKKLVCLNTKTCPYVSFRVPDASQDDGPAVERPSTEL

SMILES: CS(=O)(=O)c1ccc(-n2nnnc2-c2ccc(F)c(F)c2)cc1
- IC50 [1]: > 100 µM
- IC50 [2]: > 30 µM

SMILES: CS(=O)(=O)c1ccc(-c2ocnc2-c2ccc(F)cc2)cc1
- IC50 [1]: > 100 µM
- IC50 [2]: > 30 µM

SMILES: COc1ccc2c(c1)c(CC(=O)O)c(C)n2C(=O)c1ccc(Cl)cc1 [INDOMETHACIN]
- ED50 (Rattus norvegicus [3]): 2 mg/kg
- growth inhibition (GI) (Rattus norvegicus [4]): Causes lesions

SMILES: CS(=O)(=O)c1ccc(-c2oc(=O)oc2-c2ccccc2)cc1
- IC50 [1]: > 50 µM
- IC50 [2]: > 30 µM

SMILES: CS(=O)(=O)c1ccc(-c2cc(Br)sc2-c2ccc(F)cc2)cc1 [DUP-697]
- concentration at 2 h [5]: 700 ng/mL
- ED50 (Rattus norvegicus [3]): 1.3 mg/kg
- growth inhibition (GI) (Rattus norvegicus [6]): causes lesions

SMILES: CS(=O)(=O)c1ccc(-c2csc(Br)c2-c2ccc(F)cc2)cc1
- IC50 [1]: 1.2 µM

SMILES: CS(=O)(=O)c1ccc(-c2c(-c3ccc(F)cc3)csc2CC(=O)O)cc1
- IC50 [1]: > 50 µM
- IC50 [2]: > 10 µM

SMILES: CS(=O)(=O)c1ccc(-c2[nH]cnc2-c2ccc(F)cc2)cc1
- IC50 [1]: > 100 µM
- IC50 [2]: > 30 µM

SMILES: CS(=O)(=O)c1ccc(C2=C(c3ccc(F)cc3)C3CCC2C3)cc1 (stereo unspecified)
- IC50 [1]: > 50 µM
- IC50 [2]: 30 µM

SMILES: CC(C)(O)c1scc(-c2ccc(F)cc2)c1-c1ccc(S(C)(=O)=O)cc1
- IC50 [1]: > 50 µM
- IC50 [2]: > 30 µM

SMILES: CS(=O)(=O)c1ccc(-c2ncoc2-c2ccc(F)cc2)cc1
- IC50 [1]: > 100 µM
- IC50 [2]: > 30 µM

The next lines start with results.

- IC50 [1]: > 50 µM
- IC50 [2]: > 30 µM
SMILES: CS(=O)(=O)c1ccc(-c2c(-c3ccc(F)cc3)csc2Br)cc1

- IC50 [1]: > 1.1 µM
- IC50 [2]: 1.2 µM
SMILES: CS(=O)(=O)c1ccc(-c2cc(C(F)(F)F)nn2-c2ccc(F)cc2)cc1

- IC50 [1]: > 50 µM
- IC50 [2]: > 30 µM
SMILES: CS(=O)(=O)c1ccc(-c2nnnn2-c2ccc(F)c(F)c2)cc1

- IC50 [1]: > 50 µM
- IC50 [2]: 5.9 µM
SMILES: CC(C)(O)c1scc(-c2ccc(S(C)(=O)=O)cc2)c1-c1ccc(F)cc1

- IC50 [1]: > 100 µM
- IC50 [2]: 5.1 µM
SMILES: CS(=O)(=O)c1ccc(-c2sncc2-c2ccc(F)cc2)cc1

- IC50 [1]: > 100 µM
- IC50 [2]: 0.31 µM
SMILES: Cc1nc(-c2ccc(S(C)(=O)=O)cc2)c(-c2ccc(F)cc2)s1

- IC50 [1]: > 50 µM
- IC50 [2]: > 30 µM
SMILES: CS(=O)(=O)c1ccc(-c2[nH]nnc2-c2ccccc2)cc1

- concentration at 2 h [5]: 12800 ng/mL
- IC50 [1]: > 100 µM
- IC50 [2]: 6.5 µM
SMILES: CS(=O)(=O)c1ccc(-c2snnc2-c2ccc(F)cc2)cc1
- growth inhibition (GI) (Rattus norvegicus [7]): no lesions observed
- ED50 (Rattus norvegicus [3]): 0.7 mg/kg

- IC50 [1]: > 100 µM
- IC50 [2]: 0.31 µM
SMILES: Cc1nc(-c2ccc(F)cc2)c(-c2ccc(S(C)(=O)=O)cc2)s1

- IC50 [1]: > 100 µM
- IC50 [2]: 0.47 µM
SMILES: CS(=O)(=O)c1ccc(-c2cscc2-c2ccc(F)cc2)cc1

- IC50 [1]: > 50 µM
- IC50 [2]: > 10 µM
SMILES: CS(=O)(=O)c1ccc(-c2csc(CC(=O)O)c2-c2ccc(F)cc2)cc1

- concentration at 2 h [5]: 2200 ng/mL
- IC50 [1]: > 100 µM
- IC50 [2]: 2.1 µM
SMILES: CS(=O)(=O)c1ccc(-c2cnsc2-c2ccc(F)cc2)cc1
- ED50 (Rattus norvegicus [3]): 10 mg/kg
